Measured values taken from patent US8614235B2, “CAI-based systems and methods for the localized treatment of ocular and other diseases” (RFE Pharma LLC, priority 2004, dated 2013).

Legend:
neovascularization = assay: Contemplated clinical cases, local ocular CAI against neovascularization; type: in vivo
From the text: The following contemplated clinical cases of angiogenesis are presented as examples of methods of treatment and not as limitations. Other illustrations of treating systemic or localized angiogenesis are not presented, since the principles involved are similar, and will be apparent to the skilled reader based upon review of an individual's clinical manifestation and the preferred embodiments of the inventive compositions.

[1] = patients; cited from earlier work
[2] = in vivo; cited from earlier work
[3] = cited from earlier work
[4] = single 5 mg peribulbar injection in humans; cited from earlier work

**Q.** With NC(=O)c1nnn(Cc2cc(Cl)c(C(=O)c3ccc(Cl)cc3)c(Cl)c2)c1N [CAI] as the compound, how does the neovascular regression (neovascularization; Example 9, proliferative diabetic retinopathy, intravitreal 50 mcg) read?
**A.** some neovascular regression

**Q.** And the neovascular regression (neovascularization; Example 10, subfoveal membrane, intravitreal 200 mcg then periocular sustained release solution)?
**A.** neovascular regression occurs

**Q.** What about the “plasma concentrations associated with unacceptable toxicity” value [1] of the same compound?
**A.** above 100 micromolar

**Q.** And the serum half-life [2]?
**A.** 111 h

**Q.** And the “toxic effects observed in clinical studies” value ([3]; systemic oral dosing, doses required for effective circulating levels)?
**A.** cerebellar ataxia, peripheral neuropathy and exacerbation of depression

**Q.** What about the “serious side effect of clinical use by systemic administration” value ([3]; two cases described (Berlin et al. 2002)) of the same compound?
**A.** loss of vision

**Q.** With C[C@@H]1C[C@H]2[C@@H]3CCC4=CC(=O)C=C[C@]4(C)[C@@]3(F)[C@@H](O)C[C@]2(C)[C@@]1(O)C(=O)CO [Dexamethasone] as the compound, how does the “dexamethasone detected in the vitreous cavity” value [4] read?
**A.** 13 ng/mL
